Source: ChEMBL document CHEMBL4665900, “Novel Pyrido-pyrimidinones and Pteridinones as Endoribonuclease Inositol Requiring Enzyme 1 (IRE1α) Inhibitors for Treating Cancer” (ACS Med Chem Lett, 2020)
Values belong to the compound of their own block, whether it stands above or below them.

Molecular target: Serine/threonine-protein kinase/endoribonuclease IRE1 (Homo sapiens, UniProt O75460)
Assay: Inhibition of human His-tagged IRE1alpha expressed in Sf9 insect cells preincubated for 1 hr followed by Alexa fluor 647-labeled probe addition and measured after 1 hr by TR-FRET assay

Serine/threonine-protein kinase/endoribonuclease IRE1, sequence (O75460 whole entry): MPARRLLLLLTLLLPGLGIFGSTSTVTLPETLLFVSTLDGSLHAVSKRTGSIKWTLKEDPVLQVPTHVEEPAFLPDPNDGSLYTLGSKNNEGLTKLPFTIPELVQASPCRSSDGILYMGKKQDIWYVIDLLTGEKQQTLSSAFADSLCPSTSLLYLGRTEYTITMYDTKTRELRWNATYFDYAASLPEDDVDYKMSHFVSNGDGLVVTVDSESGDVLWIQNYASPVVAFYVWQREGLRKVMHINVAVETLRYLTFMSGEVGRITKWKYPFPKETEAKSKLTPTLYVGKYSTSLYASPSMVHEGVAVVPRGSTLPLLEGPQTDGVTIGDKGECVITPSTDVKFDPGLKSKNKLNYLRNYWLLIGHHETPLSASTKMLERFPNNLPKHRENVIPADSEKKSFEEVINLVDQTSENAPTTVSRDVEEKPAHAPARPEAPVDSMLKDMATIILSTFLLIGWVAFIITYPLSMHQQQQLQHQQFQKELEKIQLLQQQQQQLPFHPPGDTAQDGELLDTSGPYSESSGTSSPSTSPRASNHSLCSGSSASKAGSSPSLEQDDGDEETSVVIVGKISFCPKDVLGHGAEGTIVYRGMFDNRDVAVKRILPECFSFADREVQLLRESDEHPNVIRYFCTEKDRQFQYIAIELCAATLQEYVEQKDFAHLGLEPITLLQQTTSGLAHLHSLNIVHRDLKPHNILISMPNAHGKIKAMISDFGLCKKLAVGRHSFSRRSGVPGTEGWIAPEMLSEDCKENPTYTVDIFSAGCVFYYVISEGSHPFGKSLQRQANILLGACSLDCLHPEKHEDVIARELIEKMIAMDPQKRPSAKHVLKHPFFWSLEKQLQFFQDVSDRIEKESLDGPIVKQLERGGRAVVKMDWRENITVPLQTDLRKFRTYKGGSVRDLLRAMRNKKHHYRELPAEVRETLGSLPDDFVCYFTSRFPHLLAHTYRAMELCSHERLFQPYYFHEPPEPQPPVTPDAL

Compound: CC(C)n1c(=O)c(-c2cc(F)c(NS(=O)(=O)CC3(C(F)(F)F)CC3)c(F)c2)nc2cnc(N[C@H]3CC[C@H](N(C)C)CC3)nc21
IC50: 0.1 nM

Compound: COc1cccc(CS(=O)(=O)Nc2c(F)cc(-c3cc4cnc(N[C@@H]5CNC[C@@H](F)C5)nc4n(C(C)C)c3=O)c(F)c2F)c1
IC50: 0.11 nM

Compound: CC(C)n1c(=O)c(-c2ccc(NS(=O)(=O)Cc3ccc(C#N)cc3)c(F)c2)nc2cnc(N[C@@H]3CNC[C@@H](F)C3)nc21
IC50: 0.1 nM

Stronger by IC50, values ahead:

IC50: 0.08 nM
Compound: CC(C)n1c(=O)c(-c2c(F)cc(NS(=O)(=O)Cc3ccc(F)cc3)cc2F)cc2cnc(N[C@H]3CC[C@H](N(C)C)CC3)nc21

IC50: 0.05 nM
Compound: COCCN(C)[C@H]1CC[C@H](Nc2ncc3cc(-c4ccc(NS(=O)(=O)Cc5ccc(F)cc5)c(F)c4)c(=O)n(C(C)C)c3n2)CC1

IC50: 0.09 nM
Compound: Cc1ccc(CS(=O)(=O)Nc2ccc(-c3nc4cnc(N[C@@H]5CNC[C@@H](F)C5)nc4n(C(C)C)c3=O)cc2F)c(C#N)c1
